Measured values taken from PMC5450916 (Biochemistry, 2010).
Several values for one entry are separate records, joined by “and”; a condition that tells them apart may be missing. Identical values can stand only once. Like-named read-outs stand apart in the source and are kept apart here.

Legend:
[1] = target: T1, human indoleamine 2,3-dioxygenase (hIDO) (Homo sapiens, UniProt P14902); assay: Steady-state kinetics of hIDO; assay type: biochemical
[2] = test system: rabbit indoleamine 2,3-dioxygenase (rIDO); conditions: cited from earlier work
[3] = target: T1, human indoleamine 2,3-dioxygenase (hIDO); assay: Equilibrium ligand/substrate titration by optical absorption; assay type: binding; conditions: ferrous hIDO at 50 μM L-Trp, on the basis of Kd 400 μM
TDO (xcTDO) [4] = conditions: read-out: Kd^eq, cited from earlier work
TDO (xcTDO) [5] = conditions: cited from earlier work
[6] = target: T1, human indoleamine 2,3-dioxygenase (hIDO); conditions: L-Trp binding to ferric hIDO; cited from earlier work
[7] = target: rabbit indoleamine 2,3-dioxygenase (rIDO); conditions: read-out: Kd^eq, cited from earlier work
[8] = target: T1, human indoleamine 2,3-dioxygenase (hIDO); assay: Stopped-flow binding kinetics
[9] = target: T1, human indoleamine 2,3-dioxygenase (hIDO); conditions: cited from earlier work

T1 sequence (P14902 whole entry): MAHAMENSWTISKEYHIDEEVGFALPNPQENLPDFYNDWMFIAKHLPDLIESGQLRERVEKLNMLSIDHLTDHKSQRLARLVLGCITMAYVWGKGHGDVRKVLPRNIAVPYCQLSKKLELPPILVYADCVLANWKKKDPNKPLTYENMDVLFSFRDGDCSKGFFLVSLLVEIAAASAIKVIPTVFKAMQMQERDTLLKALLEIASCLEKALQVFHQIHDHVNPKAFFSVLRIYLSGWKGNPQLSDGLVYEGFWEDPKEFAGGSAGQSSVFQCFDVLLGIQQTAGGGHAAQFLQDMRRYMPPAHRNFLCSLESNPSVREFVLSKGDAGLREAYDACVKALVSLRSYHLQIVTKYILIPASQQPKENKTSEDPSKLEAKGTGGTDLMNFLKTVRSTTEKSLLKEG

## N[C@@H](Cc1c[nH]c2ccccc12)C(=O)O [L-Trp, L-Tryptophan]
[1]; Km (15 μM) vs Kd (0.4 mM) of ligand-free ferrous hIDO
  Km of L-Trp lower than Kd of L-Trp: ~ 27 fold and 27 fold
[1]; Km (~15 μM) vs literature Kd (0.53 mM) of ligand-free hIDO
  Km lower than Kd (L-Trp): ~ 40 fold
[2]
  Km: 12 µM
[3]
  enzyme in the substrate-bound form: ~ 5%
TDO (xcTDO) [4]; TDO Fe^2+ + Trp
  Kd: 0.00412 mM
TDO (xcTDO) [4]; TDO Fe^3+ + Trp
  Kd: 3.8 mM
TDO (xcTDO) [5]
  Km: 114 µM
[6]
  kon, previously published: 15500 µM⁻¹ s⁻¹
[7]; rIDO Fe^2+ + Trp
  Kd: 13 µM
[7]; rIDO Fe^3+ + Trp, ref 16
  Kd: 5800 µM
[7]; rIDO Fe^3+ + Trp, ref 35
  Kd: 30000 µM
[7]; rIDO Fe^3+–CN^− + Trp, ref 34
  Kd: 10 to 20 µM
[7]; rIDO Fe^3+–CN^− + Trp, ref 35
  Kd: 16 µM
[8]; Fe^3+ + Trp, calculated from kinetic constants
  Kd: 1000 µM
[8]; Fe^3+–CN^− + Trp, calculated from koff/kon
  Kd: 23 µM
[8]; cyanide-bound ferric hIDO, higher L-Trp concentrations, stopped-flow
  binding of L-Trp to the second binding site: too fast to be measured
[8]; effect of prebinding of cyanide, tighter substrate binding
  ΔΔG of L-Trp binding: -2.3 kcal/mol
[8]; koff, cyanide-bound vs ligand-free ferric hIDO
  retardation of L-Trp dissociation by prebinding of cyanide: 2 fold
[8]; kon, cyanide-bound vs ligand-free ferric hIDO
  facilitation of L-Trp binding by prebinding of cyanide: ~ 22 fold and 22 fold
[8]; ligand-free ferric hIDO with 0.75 mM L-Trp, trace at 403 nm, 20 °C
  observed rate constant: 10 s⁻¹
[9]; hIDO steady-state turnover
  self-inhibition (substrate inhibition) constant Ksi: 0.17 mM
[9]; read-out: Km of L-Trp, hIDO steady-state reactions
  Km: 15 ± 2 µM
